IC50 data for 22 molecules are collected here from patent US11370763B2, “Compounds and compositions for treating conditions associated with NLRP activity” (Novartis AG, priority 2017, dated 2022).

Molecules are shown by their SMILES.

The subject of one test is IL-1β production in PMA-differentiated THP-1 cells. Nature of the test: IL-1β production in PMA-differentiated THP-1 cells stimulated with gramicidin (hTHP-1 assay containing 2% fetal bovine serum; Procedures 1-3). It counts as cell-based, human. As to conditions: Homo sapiens, THP-1, hTHP-1 assay containing 2% fetal bovine serum; class symbols; read-out: hTHP-1 IC50 (Average IC50 of compounds in hTHP-1 assay). The method, then:
The following protocol is suitable for testing the activity of the compounds disclosed herein.
Procedure 1: IL-1β Production in PMA-Differentiated THP-1 Cells Stimulated with Gramicidin
THP-1 cells were purchased from the American Type Culture Collection and sub-cultured according to instructions from the supplier. Cells were cultured in complete RPMI 1640 (containing 10% heat inactivated FBS, penicillin (100 units/ml) and streptomycin (100 μg/ml)), and maintained in log phase prior to experimental setup. Prior to the experiment, compounds were dissolved in dimethyl sulfoxide (DMSO) to generate a 30 mM stock. The compound stock was first pre-diluted in DMSO to 3, 0.34, 0.042 and 0.0083 mM intermediate concentrations and subsequently spotted using Echo550 liquid handler into an empty 384-well assay plate to achieve desired final concentration (e.g. 100, 33, 11, 3.7, 1.2, 0.41, 0.14, 0.046, 0.015, 0.0051, 0.0017 μM). DMSO was backfilled in the plate to achieve a final DMSO assay concentration of 0.37%. The plate was then sealed and stored at room temperature until required.
THP-1 cells were treated with PMA (Phorbol 12-myristate 13-acetate) (20 ng/ml) for 16-18 hours. On the day of the experiment the media was removed and adherent cells were detached with trypsin for 5 minutes. Cells were then harvested, washed with complete RPMI 1640, spun down, and resuspended in RPMI 1640 (containing 2% heat inactivated FBS, penicillin (100 units/ml) and streptomycin (100 μg/ml). The cells were plated in the 384-well assay plate containing the spotted compounds at a density of 50,000 cells/well (final assay volume 50 μl). Cells were incubated with compounds for 1 hour and then stimulated with gramicidin (5 μM) (Enzo) for 2 hours. Plates were then centrifuged at 340 g for 5 min. Cell free supernatant (40 μL) was collected using a 96-channel PlateMaster (Gilson) and the production of IL-1β was evaluated by HTRF (cisbio). The plates were incubated for 18 h at 4° C. and read using the preset HTRF program (donor emission at 620 nm, acceptor emission at 668 nm) of the SpectraMax i3x spectrophotometer (Molecular Devices, software SoftMax 6). A vehicle only control and a dose titration of CRID3 (100-0.0017 μM) were run concurrently with each experiment.
Procedure 2: IL-1β Production in PMA-Differentiated THP-1 Cells Stimulated with Gramicidin
THP-1 cells were purchased from the American Type Culture Collection and sub-cultured according to instructions from the supplier. Prior to experiments, cells were cultured in complete RPMI 1640 (containing 10% heat inactivated FBS, penicillin (100 units/ml) and streptomycin (100 μg/ml)), and maintained in log phase prior to experimental setup. Prior to the experiment THP-1 were treated with PMA (Phorbol 12-myristate 13-acetate) (20 ng/ml) for 16-18 hours. Compounds were dissolved in dimethyl sulfoxide (DMSO) to generate a 30 mM stock. On the day of the experiment the media was removed and adherent cells were detached with trypsin for 5 minutes. Cells were then harvested, washed with complete RPMI 1640, spun down, resuspended in RPMI 1640 (containing 2% heat inactivated FBS, penicillin (100 units/ml) and streptomycin (100 μg/ml). The cells were plated in a 384-well plate at a density of 50,000 cells/well (final assay volume 50 μl). Compounds were first dissolved in assay medium to obtain a 5× top concentration of 500 μM. 10 step dilutions (1:3) were then undertaken in assay medium containing 1.67% DMSO. 5× compound solutions were added to the culture medium to achieve desired final concentration (e.g. 100, 33, 11, 3.7, 1.2, 0.41, 0.14, 0.046, 0.015, 0.0051, 0.0017 μM). Final DMSO concentration was at 0.37%. Cells were incubated with compounds for 1 hour and then stimulated with gramicidin (5 μM) (Enzo) for 2 hours. Plates were then centrifuged at 340 g for 5 min. Cell free supernatant (40 μL) was collected using a 96-channel PlateMaster (Gilson) and the production of IL-1β was evaluated by HTRF (cisbio). […]
As for `CC(C)c1cc(F)cc(C(C)C)c1CC(=O)NS(=N)(=O)c1ccc(C(C)(C)O)cc1` (single isomer, unassigned) [Example 2], the concentration for half-maximal inhibition (IC50) lay within 1000 to 5000 nM. The same measure, in the same setting: as for `CC(C)(O)c1cnc(S(=N)(=O)NC(=O)Cc2c3c(cc4c2CCC4)CCC3)s1` (single isomer, unassigned) [Example 6], the figure is 1000 to 5000 nM; as for `CC(C)c1cc(F)cc(C(C)C)c1CC(=O)N[S@](=N)(=O)c1ncc(C(C)(C)O)s1` (single isomer, unassigned) [Example 8], 1000 to 5000 nM. The same measure, in the same setting: to `CC(C)c1cc(F)cc(C(C)C)c1CC(=O)N[S@@](=N)(=O)c1ncc(C(C)(C)O)s1` (single isomer, unassigned) [Example 9] belongs 200 to 1000 nM. Regarding `CC(C)c1cc(F)cc(C2CC2)c1CC(=O)N=S(N)(=O)c1ccc(CN(C)C)cc1` (single isomer, unassigned) [Example 47, (R)- or (S)-2-(2-cyclopropyl-4-fluoro-6-isopropylphenyl)-N-(4-((dimethylamino)methyl)phenyl-sulfonimidoyl)acetamide], the half-maximal inhibitory concentration (IC50) was 200 to 1000 nM. On the same count and under the same terms, as for `CCc1cc(C#N)cc(C(C)C)c1CC(=O)N=S(N)(=O)c1ccc(CN(C)C)cc1` (single isomer, unassigned) [Example 59, (R)- or (S)-2-(4-cyano-2-ethyl-6-isopropylphenyl)-N-(4-((dimethylamino)methyl)phenyl-sulfonimidoyl)acetamide], the figure is 5000 to 30000 nM; as for `CC(C)c1cc(C#N)cc(C2CC2)c1CC(=O)N=S(N)(=O)c1ccc(CN(C)C)cc1F` (single isomer, unassigned) [Example 62, (S)- or (R)-2-(4-cyano-2-cyclopropyl-6-isopropylphenyl)-N-(4-((dimethylamino)methyl)-2-fluorophenylsulfonimidoyl) acetamide], 1000 to 5000 nM. For `CC(C)(O)c1nc(CO)c(S(N)(=O)=NC(=O)Cc2c3c(cc4c2CCC4)CCC3)s1` (single isomer, unassigned) [Example 66, (S)- or (R)-2-(1,2,3,5,6,7-hexahydros-indacen-4-yl)-N-(4-(hydroxymethyl)-2-(2-hydroxypropan-2-yl)thiazol-5-ylsulfonimidoyl)acetamide], the IC50 fell in the range of 200 to 1000 nM.

Regarding `CC(C)c1cc(C#N)cc(C(C)C)c1CC(=O)N=S(N)(=O)c1ccc(CN(C)C)cc1` (single isomer, unassigned) [Example 72, (S)- or (R)-2-(4-cyano-2,6-diisopropylphenyl)-N-(4-((dimethylamino)methyl)phenyl-sulfonimidoyl)acetamide], the IC50 was in the range of 1000 to 5000 nM.

The test is the same for the next values; noted with them: Homo sapiens, THP-1, hTHP-1 assay containing 2% fetal bovine serum; given as numeric bound; read-out: hTHP-1 IC50 (Average IC50 of compounds in hTHP-1 assay).
Turning to `CC(C)c1cc(F)cc(C(C)C)c1CC(=O)NS(=N)(=O)c1ccc(C(C)(C)O)cc1` (single isomer, unassigned) [Example 3], the IC50 was over 30000 nM. In the case of `CC(C)(O)c1cnc(S(=N)(=O)NC(=O)Cc2c3c(cc4c2CCC4)CCC3)s1` (single isomer, unassigned) [Example 5], the IC50 is over 30000 nM. Consider `CC(C)c1cc(F)cc(C2CC2)c1CC(=O)N=S(N)(=O)c1ccc(CN(C)C)cc1` (single isomer, unassigned) [Example 46, (S)- or (R)-2-(2-cyclopropyl-4-fluoro-6-isopropylphenyl)-N-(4-((dimethylamino)methyl)phenyl-sulfonimidoyl)acetamide], for which the IC50 was over 30000 nM. The same measure, in the same setting: as for `CCc1cc(C#N)cc(C(C)C)c1CC(=O)N=S(N)(=O)c1ccc(CN(C)C)cc1` (single isomer, unassigned) [Example 58, (S)- or (R)-2-(4-cyano-2-ethyl-6-isopropylphenyl)-N-(4-((dimethylamino)methyl)phenyl-sulfonimidoyl)acetamide], the figure is over 30000 nM; as for `CC(C)c1cc(C#N)cc(C2CC2)c1CC(=O)N=S(N)(=O)c1ccc(CN(C)C)cc1F` (single isomer, unassigned) [Example 63, (R)- or (S)-2-(4-cyano-2-cyclopropyl-6-isopropylphenyl)-N-(4-((dimethylamino)methyl)-2-fluorophenylsulfonimidoyl) acetamide], over 30000 nM. In the case of `CC(C)(O)c1nc(CO)c(S(N)(=O)=NC(=O)Cc2c3c(cc4c2CCC4)CCC3)s1` (single isomer, unassigned) [Example 67, (R)- or (S)-2-(1,2,3,5,6,7-hexahydros-indacen-4-yl)-N-(4-(hydroxymethyl)-2-(2-hydroxypropan-2-yl)thiazol-5-ylsulfonimidoyl)acetamide], the IC50 was over 30000 nM. On the same count and under the same terms, as for `CC(C)c1cc(C#N)cc(C(C)C)c1CC(=O)N=S(N)(=O)c1ccc(CN(C)C)cc1` (single isomer, unassigned) [Example 73, (R)- or (S)-2-(4-cyano-2,6-diisopropylphenyl)-N-(4-((dimethylamino)methyl)phenyl-sulfonimidoyl)acetamide], the figure is over 30000 nM.

With `CC(C)c1cc(C#N)cc(C2CC2)c1CC(=O)N=S(N)(=O)c1ccc(CN(C)C)cc1` (single isomer, unassigned) [Example 74, (S)- or (R)-2-(4-cyano-2-cyclopropyl-6-isopropylphenyl)-N-(4-((dimethylamino)methyl)phenyl-sulfonimidoyl)acetamide], the IC50 is over 30000 nM.

The same test, now with this note: hTHP-1 assay containing 2% fetal bovine serum; class symbols; read-out: hTHP-1 IC50 (Average IC50 of compounds in hTHP-1 assay).
Turning to `CC(C)c1cc(F)cc(C(C)C)c1CC(=O)N=S(N)(=O)c1sc(C(C)(C)O)cc1F` (single isomer, unassigned) [Example 50, (S)- or (R)-2-(4-fluoro-2,6-diisopropylphenyl)-N-(3-fluoro-5-(2-hydroxypropan-2-yl)thiophen-2-ylsulfonimidoyl)acetamide], the IC50 was 8 to 40 nM.

In the case of `CC(C)c1c(F)c(C#N)cc(C2CC2)c1CC(=O)N=S(N)(=O)c1sc(C(C)(C)O)cc1F` (single isomer, unassigned) [Example 54, (S)- or (R)-2-(4-cyano-6-cyclopropyl-3-fluoro-2-isopropylphenyl)-N-(3-fluoro-5-(2-hydroxypropan-2-yl)thiophen-2-ylsulfonimidoyl)acetamide], the IC50 fell in the range of 8 to 40 nM. The same measure, in the same setting: to `CC(C)c1cc(Cl)c(F)c(C2CC2)c1CC(=O)N=S(N)(=O)c1sc(C(C)(C)O)cc1F` (single isomer, unassigned) [Example 56, (S)- or (R)-2-(4-chloro-2-cyclopropyl-3-fluoro-6-isopropylphenyl)-N-(3-fluoro-5-(2-hydroxypropan-2-yl)thiophen-2-ylsulfonimidoyl)acetamide] belongs 200 to 1000 nM; to `CC(C)c1cc(C#N)cc(C(C)C)c1CC(=O)N=S(N)(=O)c1sc(C(C)(C)O)nc1CO` (single isomer, unassigned) [Example 64, (S)- or (R)-2-(4-cyano-2,6-diisopropylphenyl)-N-(4-(hydroxymethyl)-2-(2-hydroxypropan-2-yl)thiazol-5-ylsulfonimidoyl)acetamide], 200 to 1000 nM.

As for `COCc1cc(C(C)C)c(CC(=O)N=S(N)(=O)c2sc(C(C)(C)O)nc2CO)c(C(C)C)c1` (single isomer, unassigned) [Example 68, (S)- or (R)-2-(2,6-diisopropyl-4-(methoxymethyl)phenyl)-N-(4-(hydroxymethyl)-2-(2-hydroxypropan-2-yl)thiazol-5-ylsulfonimidoyl)acetamide], the IC50 was 200 to 1000 nM.

Broadly, the IC50 is the concentration that gives 50% inhibition.
